This is an account of results in PMC12029227, “In Vitro Evaluation of Novel Furo[3,2-c]coumarins as Cholinesterases and Monoamine Oxidases Inhibitors” (Molecules, 2025).

Entries after “also recorded” stand apart in the source; their conditions may differ. Like-named read-outs stand apart in the source and are kept apart here. A value given as a limit tells only on which side of the number the result lay.

One series has as its target T1, hAChE (Homo sapiens, UniProt P22303).
T1 construct: purchased Sigma-Aldrich (Milan, Italy)
The experiment in a line: biochemical. To be noted: for IC50: human AChE, mean of three independent experiments ± SEM.

For the next series, the target named is T2, hMAO B (Homo sapiens, UniProt P27338).
T2 construct: purchased Sigma-Aldrich (Milan, Italy)
T2 sequence (P27338 1-520): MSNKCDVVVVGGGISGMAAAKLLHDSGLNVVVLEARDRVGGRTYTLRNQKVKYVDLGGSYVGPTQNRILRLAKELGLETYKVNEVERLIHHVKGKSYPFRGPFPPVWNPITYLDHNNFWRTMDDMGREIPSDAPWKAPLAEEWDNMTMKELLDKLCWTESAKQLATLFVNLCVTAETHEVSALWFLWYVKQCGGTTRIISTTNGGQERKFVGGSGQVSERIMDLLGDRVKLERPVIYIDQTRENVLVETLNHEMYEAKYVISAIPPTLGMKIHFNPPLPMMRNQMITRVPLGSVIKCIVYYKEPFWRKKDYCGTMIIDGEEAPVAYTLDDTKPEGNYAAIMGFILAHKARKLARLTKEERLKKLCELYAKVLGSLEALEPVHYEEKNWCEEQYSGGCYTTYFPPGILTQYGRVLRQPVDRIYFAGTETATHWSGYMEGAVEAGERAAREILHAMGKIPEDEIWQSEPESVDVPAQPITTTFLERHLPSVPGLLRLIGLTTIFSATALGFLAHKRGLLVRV
In words: Inhibition of human recombinant MAO B, spectrofluorimetric kynuramine assay. It is filed as biochemical. To be noted: for inhibition at 10 µM: read-out: % Inhibition at 10 μM hMAO B.

Another series addresses T3, hBChE (Homo sapiens, UniProt P06276).
T3 construct: purchased Sigma-Aldrich (Milan, Italy)
The experiment in a line: biochemical. To be noted: for inhibition at 10 µM: human BChE, mean ± SEM; for inhibitory activity toward hBChE (in words): summary of Table 1. It is filed as biochemical.

Series [1] in a line: Precipitation in the cell assay conditions. It is filed as physicochemical. To be noted: 20 μM, SH-SY5Y cell assay conditions.
Description: The cell viability of human neuroblastoma SH-SY5Y cells was measured as previously reported in ref. [29]. […] Briefly, cells were plated at a concentration of 4.5 × 10^4 cells/well and cultured in Dulbecco’s modified Eagle’s medium (DMEM) high glucose supplemented with 10% (v/v) heat-inactivated fetal bovine serum (FBS), 2 mM L-glutamine, 100 U/mL penicillin, and 100 μg/mL streptomycin at 37 °C in an atmosphere of 5% CO2 in 96 wells/plate. […] Then, cells were incubated for 2 h at 37 °C and 5% CO2 with 0.5 mg/mL of MTT, and the formazan crystals in the cells were solubilized with absolute ethanol. […] Cell viability was expressed as a percentage of the negative control (CTRL), represented by untreated cells, which was set at 100%. Data are the mean ± SD from three independent experiments, each performed in triplicate and analyzed using GraphPad Prism 5.0 (GraphPad Software Inc., San Diego, CA, USA). Statistical significance was calculated using a one-way analysis of variance (ANOVA) followed by Dunnett’s multiple comparison test. Levels of significance refer to untreated cells: * p < 0.05.
For a further series, the target named is T4, hMAO A (Homo sapiens, UniProt P21397).
T4 construct: purchased Sigma-Aldrich (Milan, Italy)
T4 sequence (P21397 1-527): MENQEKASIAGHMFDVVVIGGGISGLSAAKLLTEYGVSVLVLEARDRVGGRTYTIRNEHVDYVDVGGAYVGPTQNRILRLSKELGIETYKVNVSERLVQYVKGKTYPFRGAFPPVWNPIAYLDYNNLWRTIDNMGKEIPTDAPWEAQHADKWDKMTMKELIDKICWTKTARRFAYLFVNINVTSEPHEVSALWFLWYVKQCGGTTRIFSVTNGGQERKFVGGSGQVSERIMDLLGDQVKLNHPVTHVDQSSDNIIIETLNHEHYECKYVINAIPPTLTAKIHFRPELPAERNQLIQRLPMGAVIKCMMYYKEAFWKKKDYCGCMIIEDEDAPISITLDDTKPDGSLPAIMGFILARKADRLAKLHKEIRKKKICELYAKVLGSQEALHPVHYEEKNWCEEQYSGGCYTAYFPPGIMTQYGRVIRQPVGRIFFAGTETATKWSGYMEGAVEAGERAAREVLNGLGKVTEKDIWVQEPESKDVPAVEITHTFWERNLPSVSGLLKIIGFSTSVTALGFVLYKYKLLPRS
The experiment in a line: Inhibition of human recombinant MAO A, spectrofluorimetric kynuramine assay. It is filed as biochemical. The settings on record: for inhibition at 10 µM: read-out: % Inhibition at 10 μM hMAO A; for inhibition of MAO A activity (in words): summary of Table 1.

[2] abbreviates: human recombinant MAO B on Supersomes, 10 μM, mean ± SEM.
The mark [3] stands for this setting: human recombinant MAO A on Supersomes, 10 μM, mean ± SEM.

The term IC50 denotes the midpoint of a concentration-inhibition curve. The inhibition is the drop in the measured response relative to a control, in per cent. What is called Ki is a measure of affinity in units of concentration, obtained from inhibition or displacement.

T1 sequence (P22303 32-614): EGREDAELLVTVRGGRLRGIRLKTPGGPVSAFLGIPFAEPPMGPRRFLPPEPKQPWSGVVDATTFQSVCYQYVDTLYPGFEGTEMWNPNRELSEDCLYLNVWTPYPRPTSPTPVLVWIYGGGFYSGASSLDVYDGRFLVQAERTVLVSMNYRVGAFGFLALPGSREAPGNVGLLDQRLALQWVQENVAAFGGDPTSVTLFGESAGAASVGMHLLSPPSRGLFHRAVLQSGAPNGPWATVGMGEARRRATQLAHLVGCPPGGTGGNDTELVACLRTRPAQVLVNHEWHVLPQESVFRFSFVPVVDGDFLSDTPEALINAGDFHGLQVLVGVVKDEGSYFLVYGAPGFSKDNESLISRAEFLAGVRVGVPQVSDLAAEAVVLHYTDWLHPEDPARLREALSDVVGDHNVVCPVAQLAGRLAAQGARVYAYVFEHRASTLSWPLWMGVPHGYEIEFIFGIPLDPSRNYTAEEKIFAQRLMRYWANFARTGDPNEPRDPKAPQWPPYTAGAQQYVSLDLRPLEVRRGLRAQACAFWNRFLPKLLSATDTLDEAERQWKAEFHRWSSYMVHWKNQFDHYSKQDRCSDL
T3 sequence (P06276 29-602): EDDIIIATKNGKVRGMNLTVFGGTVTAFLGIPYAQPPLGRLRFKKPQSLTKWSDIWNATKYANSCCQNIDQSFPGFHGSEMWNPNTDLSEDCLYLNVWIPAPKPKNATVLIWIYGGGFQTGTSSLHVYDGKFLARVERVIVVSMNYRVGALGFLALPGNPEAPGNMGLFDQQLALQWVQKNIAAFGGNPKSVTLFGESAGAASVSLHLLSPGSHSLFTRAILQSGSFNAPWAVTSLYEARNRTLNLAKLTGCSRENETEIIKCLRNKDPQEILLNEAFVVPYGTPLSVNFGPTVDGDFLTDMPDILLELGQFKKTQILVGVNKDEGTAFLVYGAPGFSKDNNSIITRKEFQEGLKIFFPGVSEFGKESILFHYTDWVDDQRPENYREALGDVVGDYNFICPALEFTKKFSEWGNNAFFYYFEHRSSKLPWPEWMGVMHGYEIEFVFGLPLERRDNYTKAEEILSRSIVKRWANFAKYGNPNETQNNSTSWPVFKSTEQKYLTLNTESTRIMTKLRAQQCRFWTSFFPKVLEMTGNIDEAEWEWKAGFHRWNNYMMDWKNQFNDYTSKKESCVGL
Description for hAChE: All human enzymes, substrates and reagents were from Sigma-Aldrich (Milan, Italy). Experiments were run in 96-well plates from Greiner Bio-One (Kremsmenster, Austria) with an Infinite M1000 Pro multiplate reader (Tecan, Cernusco sul Naviglio, Italy). The inhibition of ChEs was determined by following Ellman’s spectrophotometric assay in transparent, flat-bottom plates [18]. […] Incubations were performed in triplicate and results were expressed as the mean ± SEM from 3 independent experiments. The values of IC50 were calculated by nonlinear regressions using GraphPad Prism 5.00 (GraphPad Software, San Diego, CA, USA). […] Apparent inhibition constants and kinetic parameters were calculated within the “Enzyme kinetics” module of Prism.
Description for hBChE: All human enzymes, substrates and reagents were from Sigma-Aldrich (Milan, Italy). Experiments were run in 96-well plates from Greiner Bio-One (Kremsmenster, Austria) with an Infinite M1000 Pro multiplate reader (Tecan, Cernusco sul Naviglio, Italy). The inhibition of ChEs was determined by following Ellman’s spectrophotometric assay in transparent, flat-bottom plates [18]. […] Incubations were performed in triplicate and results were expressed as the mean ± SEM from 3 independent experiments. The values of IC50 were calculated by nonlinear regressions using GraphPad Prism 5.00 (GraphPad Software, San Diego, CA, USA).
Description for hMAO A: (§1) All human enzymes, substrates and reagents were from Sigma-Aldrich (Milan, Italy). Experiments were run in 96-well plates from Greiner Bio-One (Kremsmenster, Austria) with an Infinite M1000 Pro multiplate reader (Tecan, Cernusco sul Naviglio, Italy). […] For studies addressing MAOs inhibition the spectrofluorimetric protocol was based on the oxidative deamination of kynuramine to 4-hydroxyquinoline measured in black, flat-bottom polystyrene plates [29]. Incubations were performed in triplicate and results were expressed as the mean ± SEM from 3 independent experiments. The values of IC50 were calculated by nonlinear regressions using GraphPad Prism 5.00 (GraphPad Software, San Diego, CA, USA).
Description for hMAO B: as §1

In turn, `Cc1ccc([C@@H]2c3c(c4ccccc4oc3=O)O[C@H]2c2ccccc2S(C)(=O)=O)cc1` [Compound 2a] had a concentration for half-maximal inhibition (IC50) against hAChE of 5.5 ± 0.7 µM. Further, the inhibition at 10 µM came out at 40 ± 8% on hMAO B, 27 ± 12% at hBChE and 47 ± 3% on hMAO A. For the same compound, the “inhibitory activity toward hBChE (in words)” value against hBChE is “very low percentage of inhibition”. Besides, the “precipitation in the assay conditions at higher concentrations” value (from here on “precipitation in the assay conditions”) in series [1] is listed as “precipitation”.

Regarding `COc1ccc([C@@H]2c3c(c4ccccc4oc3=O)O[C@H]2c2ccccc2S(C)(=O)=O)cc1` [Compound 2b], on hAChE, the midpoint of inhibition, the IC50, lay at 6.1 ± 0.3 µM. Also, the values for the inhibition at 10 µM on hMAO B, on hBChE and at hMAO A were 39 ± 6%, 29 ± 11% and 45 ± 1%, respectively. Moreover, the “inhibitory activity toward hBChE (in words)” value at hBChE is reported as “very low percentage of inhibition”. For the same compound, in series [1], the “precipitation in the assay conditions” value was “precipitation”.

On to `CS(=O)(=O)c1ccccc1[C@@H]1Oc2c(c(=O)oc3ccccc23)[C@H]1c1ccc(Cl)cc1` [Compound 2c], for which the IC50 against hAChE was 4 ± 0.7 µM. For the same compound, the inhibition at 10 µM at hMAO B is 11 ± 6%; at hBChE it was below 5%; on hMAO A it was 16 ± 14%. At hBChE, the “inhibitory activity toward hBChE (in words)” value is “absence of inhibitory activities”.

For the compound `CS(=O)(=O)c1ccccc1[C@@H]1Oc2c(c(=O)oc3ccccc23)[C@H]1c1cccs1` [Compound 2d], the IC50 at hAChE came to 4 ± 0.5 µM. Besides, the values for the inhibition at 10 µM at hMAO B, at hBChE and on hMAO A were 17 ± 10%, below 5% and 42 ± 4%, respectively. Moreover, the “inhibitory activity toward hBChE (in words)” value on hBChE was “absence of inhibitory activities”. For the same compound, the “precipitation in the assay conditions” value in series [1] was “precipitation”.

For the compound `COc1ccc(-c2c(-c3ccccc3S(C)(=O)=O)oc3c2c(=O)oc2ccccc23)cc1` [Compound 3b], the IC50 on hAChE turned out to be 5.7 ± 1 µM. Further, the inhibition at 10 µM on hMAO B (setting [2]) was 43 ± 1%; at hBChE, 19 ± 9%; at hMAO A (setting [3]), below 5%. Further, on hBChE, the “inhibitory activity toward hBChE (in words)” value is recorded as “very low percentage of inhibition”. Also, the “inhibition of MAO A activity (in words)” value at hMAO A (10 μM) is “inactive”.

For `CS(=O)(=O)c1ccccc1-c1oc2c(c1-c1cccs1)c(=O)oc1ccccc12` [Compound 3d], the “inhibition mechanism for AChE” value on hAChE (Lineweaver-Burk plots, inhibitor 0–15 μM) is on record as “mixed-type or a non-competitive inhibition mechanism; also recorded: mixed-type kinetics; also recorded: mixed-type or non-competitive binding mode”. In addition, the Ki at hAChE (Lineweaver-Burk plots, inhibitor 0–15 μM, substrate S-acetylthiocholine 0.033 to 0.2 mM, read-out: Ki AChE) worked out at 9.7 ± 0.6 µM. Also, the IC50 against hAChE is 4.1 ± 0.7 µM; on hMAO B, 0.561 ± 0.085 µM. In addition, the figures for the inhibition at 10 µM against hBChE and at hMAO A (setting [3]) were 21 ± 3% and below 5%, respectively. Besides, the “inhibitory activity toward hBChE (in words)” value against hBChE was “very low percentage of inhibition”. Further, on hMAO A (10 μM), the “inhibition of MAO A activity (in words)” value is recorded as “no inhibition”.

`Cc1ccc(-c2c(-c3ccccc3S(C)(=O)=O)oc3c2c(=O)oc2ccccc23)cc1` [Compound 3a] displayed an IC50 on hAChE of 4.4 ± 0.5 µM. Moreover, the results for the inhibition at 10 µM at hMAO B (setting [2]), against hBChE and on hMAO A (setting [3]) were 32%, below 5% and below 5%, respectively. Also, at hBChE, the “inhibitory activity toward hBChE (in words)” value is listed as “absence of inhibitory activities”. The “inhibition of MAO A activity (in words)” value at hMAO A (10 μM) is “inactive”.
